Data reported in ChEMBL document CHEMBL1671627, “Increasing trends in antimicrobial resistance among clinically important anaerobes and Bacteroides fragilis isolates causing nosocomial infections: emerging resistance to carbapenems” (2008).
≈ marks a conversion by molar mass, not a printed value.

Columns and labels:
Prevotella intermedia [1] = assay: Antibacterial activity against Prevotella intermedia assessed as susceptible isolates by CLSI agar dilution method; format: functional
Fusobacterium mortiferum [2] = assay: Antibacterial activity against Fusobacterium mortiferum by CLSI agar dilution method; format: functional
Clostridium perfringens = assay: microbe, parasite or virus in culture; format: functional
Bacteroides caccae [3] = assay: Antibacterial activity against beta-lactamase producing Bacteroides caccae assessed as resistant isolates by CLSI agar dilution method; format: functional
Parvimonas micra [4] = assay: Antibacterial activity against beta-lactamase producing Micromonas micros assessed as susceptible isolates by CLSI agar dilution method; format: functional
Finegoldia magna [5] = assay: Antibacterial activity against beta-lactamase producing Finegoldia magna assessed as resistant isolates by CLSI agar dilution method; format: functional
Phocaeicola vulgatus [6] = assay: Antibacterial activity against beta-lactamase producing Bacteroides vulgatus assessed as resistant isolates by CLSI agar dilution method; format: functional
[7] = system: Peptostreptococcus anaerobius; assay: Antibacterial activity against beta-lactamase producing Peptostreptococcus anaerobius by CLSI agar dilution method; format: functional
Clostridium tertium [8] = assay: Antibacterial activity against beta-lactamase producing Clostridium tertium assessed as resistant isolates by CLSI agar dilution method; format: functional
Prevotella intermedia [9] = assay: Antibacterial activity against Prevotella intermedia assessed as resistant isolates by CLSI agar dilution method; format: functional
Phocaeicola vulgatus [10] = assay: Antibacterial activity against beta-lactamase producing Bacteroides vulgatus assessed as susceptible isolates by CLSI agar dilution method; format: functional
[11] = system: Prevotella melaninogenica; assay: Antibacterial activity against Prevotella melaninogenica assessed as resistant isolates by CLSI agar dilution method; format: functional
Bacteroides caccae [12] = assay: Antibacterial activity against beta-lactamase producing Bacteroides caccae by CLSI agar dilution method; format: functional
[13] = system: Peptostreptococcus anaerobius; assay: Antibacterial activity against beta-lactamase producing Peptostreptococcus anaerobius assessed as susceptible isolates by CLSI agar dilution method; format: functional
Prevotella bivia [14] = assay: Antibacterial activity against Prevotella bivia assessed as susceptible isolates by CLSI agar dilution method; format: functional
Parvimonas micra [15] = assay: Antibacterial activity against beta-lactamase producing Micromonas micros assessed as resistant isolates by CLSI agar dilution method; format: functional
[16] = system: Bacteroides thetaiotaomicron; assay: Antibacterial activity against beta-lactamase producing Bacteroides thetaiotaomicron assessed as resistant isolates by CLSI agar dilution method; format: functional
[17] = system: Clostridium paraputrificum; assay: Antibacterial activity against beta-lactamase producing Clostridium paraputrificum by CLSI agar dilution method; format: functional
[18] = system: Peptoniphilus asaccharolyticus; assay: Antibacterial activity against beta-lactamase producing Peptoniphilus asaccharolyticus assessed as susceptible isolates by CLSI agar dilution method; format: functional
Bacteroides caccae [19] = assay: Antibacterial activity against beta-lactamase producing Bacteroides caccae assessed as susceptible isolates by CLSI agar dilution method; format: functional
Bacteroides uniformis [20] = assay: Antibacterial activity against beta-lactamase producing Bacteroides uniformis by CLSI agar dilution method; format: functional
Parvimonas micra [21] = assay: Antibacterial activity against beta-lactamase producing Micromonas micros by CLSI agar dilution method; format: functional
Prevotella buccae [22] = assay: Antibacterial activity against Prevotella buccae by CLSI agar dilution method; format: functional; conditions: Segatella buccae
Prevotella intermedia [23] = assay: Antibacterial activity against Prevotella intermedia by CLSI agar dilution method; format: functional
Fusobacterium mortiferum [24] = assay: Antibacterial activity against Fusobacterium mortiferum assessed as susceptible isolates by CLSI agar dilution method; format: functional
Fusobacterium varium [25] = assay: Antibacterial activity against Fusobacterium varium assessed as resistant isolates by CLSI agar dilution method; format: functional
Fusobacterium mortiferum [26] = assay: Antibacterial activity against Fusobacterium mortiferum assessed as resistant isolates by CLSI agar dilution method; format: functional
[27] = system: Bacteroides thetaiotaomicron; assay: Antibacterial activity against beta-lactamase producing Bacteroides thetaiotaomicron by CLSI agar dilution method; format: functional
Fusobacterium nucleatum [28] = assay: Antibacterial activity against Fusobacterium nucleatum assessed as resistant isolates by CLSI agar dilution method; format: functional
Clostridium septicum [29] = assay: Antibacterial activity against beta-lactamase producing Clostridium septicum assessed as susceptible isolates by CLSI agar dilution method; format: functional
[30] = system: Bacteroides thetaiotaomicron; assay: Antibacterial activity against beta-lactamase producing Bacteroides thetaiotaomicron assessed as susceptible isolates by CLSI agar dilution method; format: functional
Prevotella bivia [31] = assay: Antibacterial activity against Prevotella bivia by CLSI agar dilution method; format: functional
Phocaeicola vulgatus [32] = assay: Antibacterial activity against beta-lactamase producing Bacteroides vulgatus by CLSI agar dilution method; format: functional
[33] = system: Fusobacterium necrophorum; assay: Antibacterial activity against Fusobacterium necrophorum assessed as susceptible isolates by CLSI agar dilution method; format: functional
Clostridium tertium [34] = assay: Antibacterial activity against beta-lactamase producing Clostridium tertium assessed as susceptible isolates by CLSI agar dilution method; format: functional
Clostridium septicum [35] = assay: Antibacterial activity against beta-lactamase producing Clostridium septicum by CLSI agar dilution method; format: functional
Bacteroides fragilis [36] = assay: Antibacterial activity against Bacteroides fragilis by CLSI agar dilution method; format: functional
Bacteroides uniformis [37] = assay: Antibacterial activity against beta-lactamase producing Bacteroides uniformis assessed as resistant isolates by CLSI agar dilution method; format: functional
Fusobacterium nucleatum [38] = assay: Antibacterial activity against Fusobacterium nucleatum assessed as susceptible isolates by CLSI agar dilution method; format: functional
Clostridium septicum [39] = assay: Antibacterial activity against beta-lactamase producing Clostridium septicum assessed as resistant isolates by CLSI agar dilution method; format: functional
[40] = system: Fusobacterium necrophorum; assay: Antibacterial activity against Fusobacterium necrophorum assessed as resistant isolates by CLSI agar dilution method; format: functional
Veillonella parvula = assay: Antibacterial activity against Veillonella parvula by CLSI agar dilution method; format: functional
Fusobacterium nucleatum [41] = assay: Antibacterial activity against Fusobacterium nucleatum by CLSI agar dilution method; format: functional
[42] = system: Clostridium paraputrificum; assay: Antibacterial activity against beta-lactamase producing Clostridium paraputrificum assessed as resistant isolates by CLSI agar dilution method; format: functional
Finegoldia magna [43] = assay: Antibacterial activity against beta-lactamase producing Finegoldia magna by CLSI agar dilution method; format: functional
Finegoldia magna [44] = assay: Antibacterial activity against beta-lactamase producing Finegoldia magna assessed as susceptible isolates by CLSI agar dilution method; format: functional
[45] = system: Peptoniphilus asaccharolyticus; assay: Antibacterial activity against beta-lactamase producing Peptoniphilus asaccharolyticus by CLSI agar dilution method; format: functional
[46] = system: Peptoniphilus asaccharolyticus; assay: Antibacterial activity against beta-lactamase producing Peptoniphilus asaccharolyticus assessed as resistant isolates by CLSI agar dilution method; format: functional
[47] = system: Fusobacterium necrophorum; assay: Antibacterial activity against Fusobacterium necrophorum by CLSI agar dilution method; format: functional
Prevotella buccae [48] = assay: Antibacterial activity against Prevotella buccae assessed as resistant isolates by CLSI agar dilution method; format: functional, Segatella buccae
Bacteroides fragilis [49] = assay: Antibacterial activity against Bacteroides fragilis assessed as resistant isolates by CLSI agar dilution method; format: functional
Clostridium tertium [50] = assay: Antibacterial activity against beta-lactamase producing Clostridium tertium by CLSI agar dilution method; format: functional
Prevotella buccae [51] = assay: Antibacterial activity against Prevotella buccae assessed as susceptible isolates by CLSI agar dilution method; format: functional, Segatella buccae
[52] = system: Prevotella melaninogenica; assay: Antibacterial activity against Prevotella melaninogenica assessed as susceptible isolates by CLSI agar dilution method; format: functional
Fusobacterium varium [53] = assay: Antibacterial activity against Fusobacterium varium by CLSI agar dilution method; format: functional
[54] = system: Prevotella melaninogenica; assay: Antibacterial activity against Prevotella melaninogenica by CLSI agar dilution method; format: functional
[55] = system: Clostridium paraputrificum; assay: Antibacterial activity against beta-lactamase producing Clostridium paraputrificum assessed as susceptible isolates by CLSI agar dilution method; format: functional
Bacteroides fragilis [56] = assay: Antibacterial activity against Bacteroides fragilis assessed as susceptible isolates by CLSI agar dilution method; format: functional
Fusobacterium varium [57] = assay: Antibacterial activity against Fusobacterium varium assessed as susceptible isolates by CLSI agar dilution method; format: functional
Bacteroides uniformis [58] = assay: Antibacterial activity against beta-lactamase producing Bacteroides uniformis assessed as susceptible isolates by CLSI agar dilution method; format: functional
[59] = system: Peptostreptococcus anaerobius; assay: Antibacterial activity against beta-lactamase producing Peptostreptococcus anaerobius assessed as resistant isolates by CLSI agar dilution method; format: functional
Prevotella bivia [60] = assay: Antibacterial activity against Prevotella bivia assessed as resistant isolates by CLSI agar dilution method; format: functional

Cc1ncc([N+](=O)[O-])n1CCO [METRONIDAZOLE]
Activity (Prevotella intermedia [1]): 94% | MIC50 (Fusobacterium mortiferum [2]): 0.5 mg/L (≈ 2.92 µM) | MIC90 (Fusobacterium mortiferum [2]): 1 mg/L (≈ 5.84 µM) | MIC50 (Clostridium perfringens): 8 mg/L (≈ 46.7 µM) | MIC90 (Clostridium perfringens): 16 mg/L (≈ 93.5 µM) | Activity (Bacteroides caccae [3]): 0% | Activity (Parvimonas micra [4]): 88% | Activity (Finegoldia magna [5]): 9% | Activity (Phocaeicola vulgatus [6]): 0% | MIC50 [7]: 0.5 mg/L (≈ 2.92 µM) | MIC90 [7]: 16 mg/L (≈ 93.5 µM) | Activity (Clostridium tertium [8]): 11% | Activity (Prevotella intermedia [9]): 0% | Activity (Phocaeicola vulgatus [10]): 100% | Activity [11]: 0% | MIC50 (Bacteroides caccae [12]): 1 mg/L (≈ 5.84 µM) | MIC90 (Bacteroides caccae [12]): 4 mg/L (≈ 23.4 µM) | Activity [13]: 88% | Activity (Prevotella bivia [14]): 94% | Activity (Parvimonas micra [15]): 9% | Activity [16]: 0% | MIC50 [17]: 8 mg/L (≈ 46.7 µM) | MIC90 [17]: 16 mg/L (≈ 93.5 µM) | Activity [18]: 88% | Activity (Bacteroides caccae [19]): 100% | MIC50 (Bacteroides uniformis [20]): 1 mg/L (≈ 5.84 µM) | MIC90 (Bacteroides uniformis [20]): 4 mg/L (≈ 23.4 µM) | MIC50 (Parvimonas micra [21]): 0.5 mg/L (≈ 2.92 µM) | MIC90 (Parvimonas micra [21]): 16 mg/L (≈ 93.5 µM) | MIC50 (Prevotella buccae [22]): 1 mg/L (≈ 5.84 µM) | MIC90 (Prevotella buccae [22]): 8 mg/L (≈ 46.7 µM) | MIC50 (Prevotella intermedia [23]): 1 mg/L (≈ 5.84 µM) | MIC90 (Prevotella intermedia [23]): 8 mg/L (≈ 46.7 µM) | Activity (Fusobacterium mortiferum [24]): 100% | Activity (Fusobacterium varium [25]): 0% | Activity (Fusobacterium mortiferum [26]): 0% | MIC50 [27]: 1 mg/L (≈ 5.84 µM) | MIC90 [27]: 2 mg/L (≈ 11.7 µM) | Activity (Fusobacterium nucleatum [28]): 0% | Activity (Clostridium septicum [29]): 64% | Activity [30]: 100% | MIC50 (Prevotella bivia [31]): 1 mg/L (≈ 5.84 µM) | MIC90 (Prevotella bivia [31]): 8 mg/L (≈ 46.7 µM) | MIC50 (Phocaeicola vulgatus [32]): 1 mg/L (≈ 5.84 µM) | MIC90 (Phocaeicola vulgatus [32]): 4 mg/L (≈ 23.4 µM) | Activity [33]: 100% | Activity (Clostridium tertium [34]): 64% | MIC50 (Clostridium septicum [35]): 8 mg/L (≈ 46.7 µM) | MIC90 (Clostridium septicum [35]): 16 mg/L (≈ 93.5 µM) | MIC50 (Bacteroides fragilis [36]): 2 mg/L (≈ 11.7 µM) | MIC90 (Bacteroides fragilis [36]): 8 mg/L (≈ 46.7 µM) | Activity (Bacteroides uniformis [37]): 0% | Activity (Fusobacterium nucleatum [38]): 100% | Activity (Clostridium septicum [39]): 11% | Activity [40]: 0% | MIC (Veillonella parvula): 1 mg/L (≈ 5.84 µM) | MIC50 (Fusobacterium nucleatum [41]): 0.5 mg/L (≈ 2.92 µM) | MIC90 (Fusobacterium nucleatum [41]): 1 mg/L (≈ 5.84 µM) | Activity [42]: 11% | MIC50 (Finegoldia magna [43]): 0.5 mg/L (≈ 2.92 µM) | MIC90 (Finegoldia magna [43]): 16 mg/L (≈ 93.5 µM) | Activity (Finegoldia magna [44]): 88% | MIC50 [45]: 0.5 mg/L (≈ 2.92 µM) | MIC90 [45]: 16 mg/L (≈ 93.5 µM) | Activity [46]: 9% | MIC50 [47]: 0.5 mg/L (≈ 2.92 µM) | MIC90 [47]: 1 mg/L (≈ 5.84 µM) | Activity (Prevotella buccae [48]): 0% | Activity (Bacteroides fragilis [49]): 0% | MIC50 (Clostridium tertium [50]): 8 mg/L (≈ 46.7 µM) | MIC90 (Clostridium tertium [50]): 16 mg/L (≈ 93.5 µM) | Activity (Prevotella buccae [51]): 94% | Activity [52]: 94% | MIC50 (Fusobacterium varium [53]): 0.5 mg/L (≈ 2.92 µM) | MIC90 (Fusobacterium varium [53]): 1 mg/L (≈ 5.84 µM) | MIC50 [54]: 1 mg/L (≈ 5.84 µM) | MIC90 [54]: 8 mg/L (≈ 46.7 µM) | Activity [55]: 64% | Activity (Bacteroides fragilis [56]): 98% | Activity (Fusobacterium varium [57]): 100% | Activity (Bacteroides uniformis [58]): 100% | Activity [59]: 9% | Activity (Prevotella bivia [60]): 0%
